Results published in the supplement of paper PMC10627819.

Experiments:
[1] = tested on: S. aureus DSM 20231; test: Bliss interaction score (quartile over a dose matrix) (fitness difference); higher = more antagonism (negative = synergy)
Method in brief: (§1)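 OD595 was read at entry into stationary phase and expressed relative to the robust mean of the no-drug wells on the same plate, capped at 1. The resulting ratio is the fitness value. The Bliss score, observed fitness minus product-based expected fitness with single-drug fitness inferred from combinations, is summarised by quartiles over technical, biological and donor/recipient replicates.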

[2] = tested on: B. subtilis 168; test: as above
Method in brief: as §1

[3] = tested on: S. aureus Newman; test: as above
Method in brief: as §1

[4] = tested on: S. pneumoniae D39V; test: as above
Method in brief: as §1

[5] = tested on: S. aureus DSM 20231; test: fitness (endpoint OD595 vs no drug) (fraction); higher = more growth
Method in brief: (§2)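 Background-subtracted growth curves were the basis for fitness, taken as the optical density at entry into stationary phase over the robust mean of no-drug control wells. A cap of 1 was applied. The curves came from OD595 readings every 30 min for 14 h at 37 °C, in 384-well plates seeded at OD595 0.01 with 30 µl, or 55 µl for S. pneumoniae.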

[6] = tested on: B. subtilis 168; test: as above
Method in brief: as §2

[7] = tested on: S. aureus Newman; test: as above
Method in brief: as §2

[8] = tested on: S. pneumoniae D39V; test: as above
Method in brief: as §2
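Wherever Bliss interaction score (quartile over a dose matrix) is given: first quartile when negative (synergy) and third quartile when positive (antagonism).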

CCN(CC)CCOC(=O)c1ccc(N)cc1 [Procaine] + CN(N=O)C(=O)N[C@@H](C=O)[C@@H](O)[C@H](O)[C@H](O)CO [Streptozotocin]
Conditions	Bliss interaction score
[1]	-0.076
[2]	0.0445
[3]	0.0489
[4]	0.0574

fitness
Conditions	first compound 85.5 µg/mL	first compound 171 µg/mL	first compound 342 µg/mL
[5], partner 0.15 µg/mL	0.822	0.848	0.851
[5], partner 0.3 µg/mL	0.724	0.799	0.786
[5], partner 0.6 µg/mL	0.593	0.682	0.651
[7], partner 0.15 µg/mL	0.894	0.85	0.904
[7], partner 0.3 µg/mL	0.809	0.798	0.799
[7], partner 0.6 µg/mL	0.624	0.602	0.617
[8], partner 1.2 µg/mL	0.977	0.994	0.963
[8], partner 2.4 µg/mL	0.994	≥ 1	0.945
[8], partner 4.8 µg/mL	0.993	≥ 1	0.961

fitness, [6], one replicate
Conditions	first compound 85.5 µg/mL	first compound 171 µg/mL	first compound 342 µg/mL
partner 0.15 µg/mL	0.98	0.945	0.891
partner 0.3 µg/mL	0.948	0.988	0.954
partner 0.6 µg/mL	0.901	0.944	0.881

CCN(CC)CCOC(=O)c1ccc(N)cc1 [Procaine] + CN[C@@H]1[C@H](O)[C@H](NC)[C@H]2O[C@@]3(O)C(=O)C[C@@H](C)O[C@H]3O[C@@H]2[C@H]1O [Spectinomycin]
Conditions	Bliss interaction score
[1]	0.0496
[2]	-0.0468
[3]	0.0891
[4]	0.0382

fitness
Conditions	first compound 85.5 µg/mL	first compound 171 µg/mL	first compound 342 µg/mL
[5], partner 4 µg/mL	0.959	0.931	0.914
[5], partner 8 µg/mL	0.948	0.911	0.928
[5], partner 16 µg/mL	0.82	0.848	0.868
[6], partner 2 µg/mL	0.972	0.926	0.923
[6], partner 4 µg/mL	0.938	0.963	0.93
[6], partner 8 µg/mL	0.895	0.84	0.824
[7], partner 4 µg/mL	0.886	0.891	0.89
[7], partner 8 µg/mL	≥ 1	0.968	0.962
[7], partner 16 µg/mL	0.896	0.905	0.88
[8], partner 4 µg/mL	≥ 1	0.973	0.914
[8], partner 8 µg/mL	0.964	0.955	0.929

fitness, one replicate
Conditions	first compound 85.5 µg/mL	first compound 171 µg/mL	first compound 342 µg/mL
[5], partner 32 µg/mL	0.744	0.724	0.813
[5], partner 64 µg/mL	0.0918	0.0696	0.107
[7], partner 32 µg/mL	0.678	0.652	0.629
[7], partner 64 µg/mL	0.139	0.132	0.147
[8], partner 16 µg/mL	0.866	0.857	0.849

CCN(CC)CCOC(=O)c1ccc(N)cc1 [Procaine] + COc1ccc(C[C@H](N)C(=O)N[C@H]2[C@@H](O)[C@H](n3cnc4c(N(C)C)ncnc43)O[C@@H]2CO)cc1 [Puromycin]
Conditions	Bliss interaction score
[1]	0.047
[2]	0.0785
[3]	0.063
[4]	0.0736

fitness
Conditions	first compound 85.5 µg/mL	first compound 171 µg/mL	first compound 342 µg/mL
[5], partner 0.39 µg/mL	0.996	≥ 1	0.916
[5], partner 0.78 µg/mL	≥ 1	≥ 1	≥ 1
[5], partner 1.56 µg/mL	0.994	≥ 1	≥ 1
[6], partner 0.39 µg/mL	0.931	0.964	0.899
[6], partner 0.78 µg/mL	0.935	0.913	0.896
[6], partner 1.56 µg/mL	0.934	0.967	0.958
[7], partner 0.39 µg/mL	≥ 1	≥ 1	≥ 1
[7], partner 0.78 µg/mL	≥ 1	0.977	0.936
[7], partner 1.56 µg/mL	≥ 1	≥ 1	≥ 1
[8], partner 1 µg/mL	0.974	0.951	0.958
[8], partner 2 µg/mL	0.948	0.966	0.955
[8], partner 4 µg/mL	0.789	0.831	0.814

fitness, [5], one replicate
Conditions	first compound 85.5 µg/mL	first compound 171 µg/mL	first compound 342 µg/mL
partner 3.12 µg/mL	0.86	0.879	≥ 1
partner 6.24 µg/mL	0.592	0.646	0.618

CCN(CC)CCOC(=O)c1ccc(N)cc1 [Procaine] + Cc1cc(NS(=O)(=O)c2ccc(N)cc2)no1 [Sulfamethoxazol]
Conditions	Bliss interaction score
[1]	0.0626
[2]	-0.0492
[3]	0.0323
[4]	0.0407

fitness
Conditions	[5]	[6]	[7]	[8]
first compound 85.5 µg/mL, partner 1 µg/mL	0.976	0.909	0.999	0.991
first compound 85.5 µg/mL, partner 2 µg/mL	0.979	0.88	0.984	0.982
first compound 85.5 µg/mL, partner 4 µg/mL	0.999	0.905	0.959	0.924
first compound 171 µg/mL, partner 1 µg/mL	0.992	0.865	0.99	0.979
first compound 171 µg/mL, partner 2 µg/mL	≥ 1	0.836	0.981	≥ 1
first compound 171 µg/mL, partner 4 µg/mL	≥ 1	0.936	0.937	0.923
first compound 342 µg/mL, partner 1 µg/mL	0.944	0.88	–	0.979
first compound 342 µg/mL, partner 2 µg/mL	≥ 1	0.78	–	0.974
first compound 342 µg/mL, partner 4 µg/mL	≥ 1	0.918	–	0.908

fitness, one replicate
Conditions	first compound 85.5 µg/mL	first compound 171 µg/mL	first compound 342 µg/mL
[6], partner 0.5 µg/mL	0.971	0.908	0.963
[7], partner 8 µg/mL	0.88	0.892	0.934
